Ends that are not written are not given here.
Test system: C57BL/6N mice with induced myocardial infarction
Assay: Histology and immunohistochemistry of hearts after induced infarction
Format: in vivo
Settings: infarcted mouse heart, up to 28 days; FIG. 6A and 6C
Method: To further study the newly identified effects of VIF (according to SEQ ID NO: 1), and especially in vivo, 8 to 10 week old wild type male C57BL/6N mice (Charles River, Germany) were intubated under anesthesia (100 mg/kg ketamine, 10 mg/kg xylazine, i.p.) and analgesia (0.1 mg/kg buprenorphine). The mice were ventilated with positive pressure and oxygenation using a rodent respirator (Harvard Apparatus, Germany). […]
A Gömöri trichrome staining was performed to determine the infarct size. Subsequently, three slices per mouse from 3 to 5 different mice were analyzed using ImageJ. after one of anti-SMA antibody (smooth muscle actin, DAKO, FIG. 6D), anti-MAC3 antibody (BD Pharmingen, FIG. 6B), anti-MPO antibody (Neomarkers, FIG. 6A) and anti-CD31 antibody (Santa Cruz Biotechnology, FIG. 6E) staining, followed by staining with fluorescein isothiocyanate (FITC)—or a Cy3-conjugated secondary antibody (DAKO, Germany). Positively stained cells or double-positive stained cells (FIG. 6C for anti-MAC3/MPO) were counted in three different fields per slice and expressed as cells per field of view (200× magnification).

Sequence: HSGFEDELSEVLENQSSQAELKEAVEEPSSKDVME [VIF]
- infiltration of neutrophils (anti-MPO) compared to non-treated controls: does not lead to an increased infiltration of neutrophils
